Assay [1] in a line: Decrease in c-Myc-p21MAX heterodimer binding to E-box DNA at 50 uM by EMSA method. A general note: In EMSA bound probe runs differently from free probe, usually more slowly.
A short description of assay [2]: Binding affinity to fluorescently tagged c-Myc-p21MAX heterodimer assessed as competitive constant by using fluorescence polarization titration.

Compound `CCc1ccc(/C=C2\SC(=S)NC2=O)cc1` yielded a fold change (FC) in assay [1] of 2. Besides, in assay [2], the Activity is 12.

The values are drawn from ChEMBL document CHEMBL1143307, “Small-molecule perturbation of competing interactions between c-Myc and Max” (Bioorg Med Chem Lett, 2009).
